# Experimental data reported in publication PMC9856672, “SGC-CAMKK2-1: A Chemical Probe for CAMKK2” (Cells, 2023).
# Legend:
# MUSK = target: T1, MUSK (Homo sapiens, UniProt O15146); experiment: KINOMEscan 1 μM, MUSK; format: binding; conditions: 1000 nM; Entrez MUSK; read-out: Percent Control
# T1 construct: purchased Eurofins DiscoverX KINOMEscan
# Text: (§1) Supplement cells-12-00287-s001.zip/File S2. KinomeScan data for the CAMKK2 probe and negative control.xlsx, sheet "SGC-CAMKK2-1" | column: Percent Control
# EPHA5 = target: T2, EPHA5 (Homo sapiens, UniProt P54756); experiment: KINOMEscan 1 μM, EPHA5; format: binding; conditions: 1000 nM; Entrez EPHA5; read-out: Percent Control
# T2 construct: purchased Eurofins DiscoverX KINOMEscan
# T2 sequence (P54756 25-1037): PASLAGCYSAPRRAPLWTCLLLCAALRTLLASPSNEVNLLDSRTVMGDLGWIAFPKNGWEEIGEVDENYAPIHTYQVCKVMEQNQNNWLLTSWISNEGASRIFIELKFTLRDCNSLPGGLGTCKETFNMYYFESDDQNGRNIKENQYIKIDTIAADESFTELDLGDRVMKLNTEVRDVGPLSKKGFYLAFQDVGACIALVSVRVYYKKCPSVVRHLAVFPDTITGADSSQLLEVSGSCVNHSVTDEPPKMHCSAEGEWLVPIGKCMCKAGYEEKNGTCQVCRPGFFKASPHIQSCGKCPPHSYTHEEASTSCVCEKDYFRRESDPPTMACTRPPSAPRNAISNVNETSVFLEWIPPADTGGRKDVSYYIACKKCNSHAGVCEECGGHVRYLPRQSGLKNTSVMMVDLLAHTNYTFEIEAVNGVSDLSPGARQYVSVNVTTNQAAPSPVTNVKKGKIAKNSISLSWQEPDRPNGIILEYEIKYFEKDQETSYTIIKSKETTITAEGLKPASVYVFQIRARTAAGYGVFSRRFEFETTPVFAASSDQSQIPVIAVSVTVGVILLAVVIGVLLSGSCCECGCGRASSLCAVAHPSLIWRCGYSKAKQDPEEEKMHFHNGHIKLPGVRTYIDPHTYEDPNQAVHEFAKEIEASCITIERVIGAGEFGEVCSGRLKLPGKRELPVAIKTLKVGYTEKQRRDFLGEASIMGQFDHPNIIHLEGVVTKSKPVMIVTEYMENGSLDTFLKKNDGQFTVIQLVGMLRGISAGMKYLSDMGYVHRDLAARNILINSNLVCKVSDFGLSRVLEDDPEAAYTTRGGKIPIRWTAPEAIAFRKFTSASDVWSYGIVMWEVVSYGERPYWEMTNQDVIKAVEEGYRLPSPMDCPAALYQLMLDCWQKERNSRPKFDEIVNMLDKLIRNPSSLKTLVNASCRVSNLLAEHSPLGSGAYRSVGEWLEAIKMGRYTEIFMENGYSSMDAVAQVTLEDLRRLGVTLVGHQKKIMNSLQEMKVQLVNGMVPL
# Text: as §1
# BMPR2 = target: T3, BMPR2 (Homo sapiens, UniProt Q13873); experiment: KINOMEscan 1 μM, BMPR2; format: binding; conditions: 1000 nM; Entrez BMPR2; read-out: Percent Control
# T3 construct: purchased Eurofins DiscoverX KINOMEscan
# Text: as §1
# IRAK4 = target: T4, IRAK4 (Homo sapiens, UniProt Q9NWZ3); experiment: KINOMEscan 1 μM, IRAK4; format: binding; conditions: 1000 nM; Entrez IRAK4; read-out: Percent Control
# T4 construct: purchased Eurofins DiscoverX KINOMEscan
# Text: as §1
# [1] = target: T5, ABL1(Q252H)-phosphorylated (Homo sapiens, UniProt P00519, Q252H); experiment: KINOMEscan 1 μM, ABL1(Q252H)-phosphorylated; format: binding; conditions: 1000 nM; Entrez ABL1; read-out: Percent Control
# T5 construct: purchased Eurofins DiscoverX KINOMEscan
# Text: as §1
# PKAC-beta = target: T6, PKAC-beta (Homo sapiens, UniProt P22694); experiment: DiscoverX KINOMEscan binding assay at 1 μM, PKAC-beta; conditions: PKAC-beta (PRKACB); Compound Concentration 1000 nM; read-out: Percent Control
# T6 construct: purchased Eurofins DiscoverX KINOMEscan
# Text: as §1
# MLCK = target: T7, MLCK (Homo sapiens, UniProt Q32MK0); experiment: KINOMEscan 1 μM, MLCK; format: binding; conditions: 1000 nM; Entrez MYLK3; read-out: Percent Control
# T7 construct: purchased Eurofins DiscoverX KINOMEscan
# Text: as §1
# PCTK1 = target: T8, PCTK1 (Homo sapiens, UniProt Q00536); experiment: DiscoverX KINOMEscan binding assay at 1 μM, PCTK1; conditions: PCTK1 (CDK16); Compound Concentration 1000 nM; read-out: Percent Control
# T8 construct: purchased Eurofins DiscoverX KINOMEscan
# Text: as §1
# NDR2 = target: T9, NDR2 (Homo sapiens, UniProt Q9Y2H1); experiment: KINOMEscan 1 μM, NDR2; format: binding; conditions: 1000 nM; Entrez STK38L; read-out: Percent Control
# T9 construct: purchased Eurofins DiscoverX KINOMEscan
# Text: as §1
# HCK = target: T10, HCK (Homo sapiens, UniProt P08631); experiment: KINOMEscan 1 μM, HCK; format: binding; conditions: 1000 nM; Entrez HCK; read-out: Percent Control
# T10 construct: purchased Eurofins DiscoverX KINOMEscan
# T10 sequence (P08631 whole entry): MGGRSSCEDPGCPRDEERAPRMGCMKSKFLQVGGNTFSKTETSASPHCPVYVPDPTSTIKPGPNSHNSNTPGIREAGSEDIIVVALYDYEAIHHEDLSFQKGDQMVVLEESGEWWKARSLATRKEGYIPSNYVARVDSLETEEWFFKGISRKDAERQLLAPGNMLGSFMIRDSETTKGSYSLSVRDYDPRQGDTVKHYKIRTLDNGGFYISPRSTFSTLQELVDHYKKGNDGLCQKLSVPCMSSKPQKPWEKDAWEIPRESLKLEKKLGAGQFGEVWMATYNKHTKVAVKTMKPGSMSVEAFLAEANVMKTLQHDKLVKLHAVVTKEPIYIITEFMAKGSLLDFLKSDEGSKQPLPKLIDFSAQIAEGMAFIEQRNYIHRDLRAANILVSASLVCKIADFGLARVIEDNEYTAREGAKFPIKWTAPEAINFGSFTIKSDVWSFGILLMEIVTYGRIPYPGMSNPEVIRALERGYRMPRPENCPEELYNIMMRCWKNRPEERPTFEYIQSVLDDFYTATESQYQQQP
# Text: as §1
# KIT(A829P) = target: T11, KIT(A829P) (Homo sapiens, UniProt P10721, A829P); experiment: KINOMEscan 1 μM, KIT(A829P); format: binding; conditions: 1000 nM; Entrez KIT; read-out: Percent Control
# T11 construct: purchased Eurofins DiscoverX KINOMEscan
# Text: as §1
# CAMK2D = target: T12, CAMK2D (Homo sapiens, UniProt Q13557); experiment: KINOMEscan 1 μM, CAMK2D; format: binding; conditions: 1000 nM; Entrez CAMK2D; read-out: Percent Control
# T12 construct: purchased Eurofins DiscoverX KINOMEscan
# Text: as §1
# TNK2 = target: T13, TNK2 (Homo sapiens, UniProt Q07912); experiment: KINOMEscan 1 μM, TNK2; format: binding; conditions: 1000 nM; Entrez TNK2; read-out: Percent Control
# T13 construct: purchased Eurofins DiscoverX KINOMEscan
# T13 sequence (Q07912 whole entry): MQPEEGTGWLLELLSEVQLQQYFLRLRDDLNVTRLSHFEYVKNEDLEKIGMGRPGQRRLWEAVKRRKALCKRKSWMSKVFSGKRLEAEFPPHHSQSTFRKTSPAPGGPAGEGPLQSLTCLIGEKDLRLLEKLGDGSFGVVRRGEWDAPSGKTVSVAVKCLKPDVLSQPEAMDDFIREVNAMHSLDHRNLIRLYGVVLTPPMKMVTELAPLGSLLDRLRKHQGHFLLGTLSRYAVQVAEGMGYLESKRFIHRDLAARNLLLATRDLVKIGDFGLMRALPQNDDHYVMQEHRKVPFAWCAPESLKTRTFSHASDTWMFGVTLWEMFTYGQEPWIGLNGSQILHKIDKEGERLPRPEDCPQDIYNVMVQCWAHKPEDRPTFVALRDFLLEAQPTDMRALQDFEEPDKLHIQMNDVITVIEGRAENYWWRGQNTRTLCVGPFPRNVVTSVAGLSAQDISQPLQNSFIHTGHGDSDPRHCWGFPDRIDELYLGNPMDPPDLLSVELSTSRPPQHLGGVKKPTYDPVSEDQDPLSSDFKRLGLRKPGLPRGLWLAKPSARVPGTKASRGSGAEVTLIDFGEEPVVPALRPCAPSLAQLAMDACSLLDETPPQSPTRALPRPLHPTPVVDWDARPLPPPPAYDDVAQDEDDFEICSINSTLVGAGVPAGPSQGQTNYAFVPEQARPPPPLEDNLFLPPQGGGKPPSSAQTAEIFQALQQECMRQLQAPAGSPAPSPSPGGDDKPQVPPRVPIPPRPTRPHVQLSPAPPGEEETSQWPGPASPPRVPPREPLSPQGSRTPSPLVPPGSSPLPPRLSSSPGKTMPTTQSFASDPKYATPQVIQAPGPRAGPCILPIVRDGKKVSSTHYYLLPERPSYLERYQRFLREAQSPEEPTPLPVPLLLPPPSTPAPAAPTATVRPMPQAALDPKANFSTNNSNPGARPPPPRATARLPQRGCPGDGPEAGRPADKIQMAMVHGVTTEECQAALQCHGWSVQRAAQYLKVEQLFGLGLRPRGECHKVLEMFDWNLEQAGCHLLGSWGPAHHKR
# Text: as §1
# MAP3K4 = target: T14, MAP3K4 (Homo sapiens, UniProt Q9Y6R4); experiment: KINOMEscan 1 μM, MAP3K4; format: binding; conditions: 1000 nM; Entrez MAP3K4; read-out: Percent Control
# T14 construct: purchased Eurofins DiscoverX KINOMEscan
# Text: as §1
# RET(V804L) = target: T15, RET(V804L) (Homo sapiens, UniProt P07949, V804L); experiment: KINOMEscan 1 μM, RET(V804L); format: binding; conditions: 1000 nM; Entrez RET; read-out: Percent Control
# T15 construct: purchased Eurofins DiscoverX KINOMEscan
# Text: as §1
# [2] = target: T16, RSK4(Kin.Dom.1-N-terminal) (Homo sapiens, UniProt Q9UK32); experiment: KINOMEscan at 1 μM, RSK4(Kin.Dom.1-N-terminal); format: binding; conditions: 1000 nM, read-out: Percent Control
# T16 construct: RSK4(Kin.Dom.1-N-terminal); purchased Eurofins DiscoverX KINOMEscan
# T16 sequence (Q9UK32 1-400 limits assumed): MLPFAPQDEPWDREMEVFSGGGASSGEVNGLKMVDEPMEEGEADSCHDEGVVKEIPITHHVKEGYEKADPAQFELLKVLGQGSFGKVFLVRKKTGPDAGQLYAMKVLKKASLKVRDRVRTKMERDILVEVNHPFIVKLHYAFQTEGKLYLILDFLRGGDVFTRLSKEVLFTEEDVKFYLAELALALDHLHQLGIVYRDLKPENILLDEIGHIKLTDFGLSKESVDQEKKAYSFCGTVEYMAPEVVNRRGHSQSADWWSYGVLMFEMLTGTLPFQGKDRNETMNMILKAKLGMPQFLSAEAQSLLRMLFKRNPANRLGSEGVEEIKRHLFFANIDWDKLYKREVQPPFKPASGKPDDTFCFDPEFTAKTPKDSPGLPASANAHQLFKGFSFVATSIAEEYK
# Text: (§2) Supplement cells-12-00287-s001.zip/File S2. KinomeScan data for the CAMKK2 probe and negative control.xlsx, sheet "SGC-CAMKK2-1N" | column: Percent Control
# BMPR1A = target: T17, BMPR1A (Homo sapiens, UniProt P36894); experiment: KINOMEscan at 1 μM, BMPR1A; format: binding; conditions: 1000 nM, read-out: Percent Control
# T17 construct: purchased Eurofins DiscoverX KINOMEscan
# Text: as §2
# BMPR1B = target: T18, BMPR1B (Homo sapiens, UniProt O00238); experiment: KINOMEscan at 1 μM, BMPR1B; format: binding; conditions: 1000 nM, read-out: Percent Control
# T18 construct: purchased Eurofins DiscoverX KINOMEscan
# Text: as §2
# YANK1 = target: T19, YANK1 (Homo sapiens, UniProt Q8WU08); experiment: KINOMEscan at 1 μM, YANK1; format: binding; conditions: 1000 nM, read-out: Percent Control
# T19 construct: purchased Eurofins DiscoverX KINOMEscan
# Text: as §2
# EPHB3 = target: T20, EPHB3 (Homo sapiens, UniProt P54753); experiment: KINOMEscan at 1 μM, EPHB3; format: binding; conditions: 1000 nM, read-out: Percent Control
# T20 construct: purchased Eurofins DiscoverX KINOMEscan
# Text: as §2
# NEK1 = target: T21, NEK1 (Homo sapiens, UniProt Q96PY6); experiment: KINOMEscan at 1 μM, NEK1; format: binding; conditions: 1000 nM, read-out: Percent Control
# T21 construct: purchased Eurofins DiscoverX KINOMEscan
# Text: as §2
# ERK2 = target: T22, ERK2 (Homo sapiens, UniProt P28482); experiment: KINOMEscan binding assay at 1 μM, ERK2; conditions: Compound Concentration 1000 nM; read-out: Percent Control
# T22 construct: purchased Eurofins DiscoverX KINOMEscan
# Text: as §2
# ADCK3 = target: T23, ADCK3 (Homo sapiens, UniProt Q8NI60); experiment: KINOMEscan at 1 μM, ADCK3; format: binding; conditions: 1000 nM, read-out: Percent Control
# T23 construct: purchased Eurofins DiscoverX KINOMEscan
# Text: as §2
# [3] = target: T24, RSK3(Kin.Dom.1-N-terminal) (Homo sapiens, UniProt Q15349); experiment: KINOMEscan binding assay at 1 μM, RSK3(Kin.Dom.1-N-terminal); conditions: Compound Concentration 1000 nM; read-out: Percent Control
# T24 construct: RSK3(Kin.Dom.1-N-terminal); purchased Eurofins DiscoverX KINOMEscan
# Text: as §2
# p38-alpha = target: T25, p38-alpha (Homo sapiens, UniProt Q16539); experiment: KINOMEscan at 1 μM, p38-alpha; format: binding; conditions: 1000 nM, read-out: Percent Control
# T25 construct: purchased Eurofins DiscoverX KINOMEscan
# Text: as §2
# CDKL2 = target: T26, CDKL2 (Homo sapiens, UniProt Q92772); experiment: KINOMEscan at 1 μM, CDKL2; format: binding; conditions: 1000 nM, read-out: Percent Control
# T26 construct: purchased Eurofins DiscoverX KINOMEscan
# Text: as §2
# DMPK = target: T27, DMPK (Homo sapiens, UniProt Q09013); experiment: KINOMEscan at 1 μM, DMPK; format: binding; conditions: 1000 nM, read-out: Percent Control
# T27 construct: purchased Eurofins DiscoverX KINOMEscan
# Text: as §2
# CLK2 = target: T28, CLK2 (Homo sapiens, UniProt P49760); experiment: KINOMEscan at 1 μM, CLK2; format: binding; conditions: 1000 nM, read-out: Percent Control
# T28 construct: purchased Eurofins DiscoverX KINOMEscan
# T28 sequence (P49760 whole entry): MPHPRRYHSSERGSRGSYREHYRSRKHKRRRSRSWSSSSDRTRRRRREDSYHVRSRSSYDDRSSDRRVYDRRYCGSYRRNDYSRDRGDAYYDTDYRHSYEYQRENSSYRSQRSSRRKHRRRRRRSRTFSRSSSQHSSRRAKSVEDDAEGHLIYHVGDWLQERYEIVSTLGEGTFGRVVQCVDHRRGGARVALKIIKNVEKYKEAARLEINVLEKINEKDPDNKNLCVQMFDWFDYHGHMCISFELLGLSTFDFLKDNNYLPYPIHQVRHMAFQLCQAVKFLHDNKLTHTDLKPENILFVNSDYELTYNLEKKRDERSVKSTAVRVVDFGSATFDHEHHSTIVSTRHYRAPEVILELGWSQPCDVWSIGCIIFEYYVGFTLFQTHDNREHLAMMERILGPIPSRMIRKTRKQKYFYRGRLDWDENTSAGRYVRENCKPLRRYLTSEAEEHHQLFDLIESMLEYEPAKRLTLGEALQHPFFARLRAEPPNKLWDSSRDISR
# Text: as §2
# HASPIN = target: T29, HASPIN (Homo sapiens, UniProt Q8TF76); experiment: KINOMEscan binding assay at 1 μM, HASPIN; conditions: Compound Concentration 1000 nM; read-out: Percent Control
# T29 construct: purchased Eurofins DiscoverX KINOMEscan
# T29 sequence (Q8TF76 whole entry): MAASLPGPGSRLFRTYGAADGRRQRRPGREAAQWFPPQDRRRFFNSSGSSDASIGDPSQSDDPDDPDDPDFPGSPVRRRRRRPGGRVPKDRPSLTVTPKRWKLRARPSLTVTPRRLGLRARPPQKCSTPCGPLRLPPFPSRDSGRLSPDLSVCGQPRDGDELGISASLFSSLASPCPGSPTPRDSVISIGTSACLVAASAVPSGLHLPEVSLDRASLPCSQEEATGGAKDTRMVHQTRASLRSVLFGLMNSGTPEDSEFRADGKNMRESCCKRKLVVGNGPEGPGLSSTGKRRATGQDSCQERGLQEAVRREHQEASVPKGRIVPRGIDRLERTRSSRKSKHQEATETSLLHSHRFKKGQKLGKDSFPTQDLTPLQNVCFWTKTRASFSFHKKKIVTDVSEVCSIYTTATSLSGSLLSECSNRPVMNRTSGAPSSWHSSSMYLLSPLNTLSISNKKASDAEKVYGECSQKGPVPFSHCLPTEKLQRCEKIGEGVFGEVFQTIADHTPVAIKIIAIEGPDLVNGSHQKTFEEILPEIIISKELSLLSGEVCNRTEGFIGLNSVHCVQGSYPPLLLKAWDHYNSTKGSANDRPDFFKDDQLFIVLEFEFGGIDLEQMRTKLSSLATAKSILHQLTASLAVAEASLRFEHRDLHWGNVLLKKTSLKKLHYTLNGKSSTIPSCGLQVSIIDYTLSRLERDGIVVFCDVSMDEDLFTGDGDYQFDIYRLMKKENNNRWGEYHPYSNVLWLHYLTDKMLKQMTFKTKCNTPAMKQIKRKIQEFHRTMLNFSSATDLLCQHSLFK
# Text: as §2
# MEK4 = target: T30, MEK4 (Homo sapiens, UniProt P45985); experiment: KINOMEscan at 1 μM, MEK4; format: binding; conditions: 1000 nM, read-out: Percent Control
# T30 construct: purchased Eurofins DiscoverX KINOMEscan
# Text: as §2
# FGR = target: T31, FGR (Homo sapiens, UniProt P09769); experiment: KINOMEscan at 1 μM, FGR; format: binding; conditions: 1000 nM, read-out: Percent Control
# T31 construct: purchased Eurofins DiscoverX KINOMEscan
# Text: as §2
# ACVR2B = target: T32, ACVR2B (Homo sapiens, UniProt Q13705); experiment: KINOMEscan at 1 μM, ACVR2B; format: binding; conditions: 1000 nM, read-out: Percent Control
# T32 construct: purchased Eurofins DiscoverX KINOMEscan
# T32 sequence (Q13705 19-512): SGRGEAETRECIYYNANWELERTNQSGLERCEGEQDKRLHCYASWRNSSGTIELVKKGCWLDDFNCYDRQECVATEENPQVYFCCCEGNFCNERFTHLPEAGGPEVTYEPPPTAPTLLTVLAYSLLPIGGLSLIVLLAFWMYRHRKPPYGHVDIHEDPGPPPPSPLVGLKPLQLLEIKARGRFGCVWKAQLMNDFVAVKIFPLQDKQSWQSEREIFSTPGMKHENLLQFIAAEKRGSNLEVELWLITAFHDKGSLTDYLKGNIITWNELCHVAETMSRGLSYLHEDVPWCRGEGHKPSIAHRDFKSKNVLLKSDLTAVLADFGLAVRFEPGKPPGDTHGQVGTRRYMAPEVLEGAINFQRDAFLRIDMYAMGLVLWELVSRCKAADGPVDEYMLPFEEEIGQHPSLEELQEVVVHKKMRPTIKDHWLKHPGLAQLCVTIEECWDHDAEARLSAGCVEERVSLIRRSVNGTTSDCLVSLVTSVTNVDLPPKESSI
# Text: as §2
# PIK3CA(I800L) = target: T33, PIK3CA(I800L) (Homo sapiens, UniProt P42336, I800L); experiment: KINOMEscan at 1 μM, PIK3CA(I800L); format: binding; conditions: 1000 nM, read-out: Percent Control
# T33 construct: purchased Eurofins DiscoverX KINOMEscan
# Text: as §2
smiles,measurement,setting,value
Cc1cccc(-c2cnc3occ(-c4ccc(C(=O)O)c(C5CCCC5)c4)c3c2)c1 [SGC-CAMKK2-1 (YL-36)],remaining binding at 1 µM,MUSK,84%
same,remaining binding at 1 µM,EPHA5,100%
same,remaining binding at 1 µM,BMPR2,100%
same,remaining binding at 1 µM,IRAK4,100%
same,remaining binding at 1 µM,[1],96%
same,remaining binding at 1 µM,PKAC-beta,100%
same,remaining binding at 1 µM,MLCK,86%
same,remaining binding at 1 µM,PCTK1,100%
same,remaining binding at 1 µM,NDR2,100%
same,remaining binding at 1 µM,HCK,100%
same,remaining binding at 1 µM,KIT(A829P),61%
same,remaining binding at 1 µM,CAMK2D,98%
same,remaining binding at 1 µM,TNK2,99%
same,remaining binding at 1 µM,MAP3K4,100%
same,remaining binding at 1 µM,RET(V804L),94%
O=C(O)c1ccc(-c2coc3ncc(-c4ccccc4)cc23)cc1Cl [SGC-CAMKK2-1N (UNC-YL-83)],remaining binding at 1 µM,[2],92%
same,remaining binding at 1 µM,BMPR1A,93%
same,remaining binding at 1 µM,BMPR1B,65%
same,remaining binding at 1 µM,YANK1,84%
same,remaining binding at 1 µM,EPHB3,53%
same,remaining binding at 1 µM,NEK1,71%
same,remaining binding at 1 µM,ERK2,100%
same,remaining binding at 1 µM,ADCK3,68%
same,remaining binding at 1 µM,[3],100%
same,remaining binding at 1 µM,p38-alpha,79%
same,remaining binding at 1 µM,CDKL2,74%
same,remaining binding at 1 µM,DMPK,72%
same,remaining binding at 1 µM,CLK2,62%
same,remaining binding at 1 µM,HASPIN,100%
same,remaining binding at 1 µM,MEK4,81%
same,remaining binding at 1 µM,FGR,54%
same,remaining binding at 1 µM,ACVR2B,66%
same,remaining binding at 1 µM,PIK3CA(I800L),87%
